Laboratory results taken from ChEMBL document CHEMBL1201862, “PubChem BioAssay data set” (2004).
Active and inactive are the calls of the source.

Columns and labels:
Vero [1] = experiment: cells; assay type: functional, cell-based; conditions: Chlorocebus sabaeus
Vero [2] = experiment: cells; assay type: functional; conditions: Chlorocebus sabaeus
[3] = target: T1, Heat shock factor protein 1 (Mus musculus, UniProt P38532); experiment: enhancement of HSF1-driven luciferase signal – cell-based, NIH3T3, luminescence, dose retest, confirmation (AID 435004); assay type: functional;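 further: stress induced by proteasome inhibitor MG132 added 30 min after compound; luciferase reporter driven by HSF1 response element in NIH3T3 cells; actives raise luminescence as potentiators of the MG132 stress response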
T1 sequence (P38532 whole entry): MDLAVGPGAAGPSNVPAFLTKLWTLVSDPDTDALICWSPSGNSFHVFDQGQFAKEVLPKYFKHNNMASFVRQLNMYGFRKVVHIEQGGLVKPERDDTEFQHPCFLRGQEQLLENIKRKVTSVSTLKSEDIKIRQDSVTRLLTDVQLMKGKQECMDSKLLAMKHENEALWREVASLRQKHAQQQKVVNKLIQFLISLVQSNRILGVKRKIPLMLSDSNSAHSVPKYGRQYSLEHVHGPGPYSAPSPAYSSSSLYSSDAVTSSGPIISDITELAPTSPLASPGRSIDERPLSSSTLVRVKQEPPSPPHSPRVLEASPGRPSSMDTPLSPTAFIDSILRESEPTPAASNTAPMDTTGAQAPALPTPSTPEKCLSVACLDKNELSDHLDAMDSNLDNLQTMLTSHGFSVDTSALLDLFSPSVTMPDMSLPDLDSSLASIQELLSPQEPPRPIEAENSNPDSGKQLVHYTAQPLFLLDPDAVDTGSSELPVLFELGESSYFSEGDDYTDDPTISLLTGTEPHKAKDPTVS

Trypsin = Trypsin (Sus scrofa, UniProt P00761); experiment: trypsin protease activity blockade – biochemical, quenched peptide fluorescence, cherry-pick, selectivity assay for Rce1 protease inhibitor project, dose response (AID 488789)
CAAX prenyl protease 2 = target: T2, CAAX prenyl protease 2 (Homo sapiens, UniProt Q9Y256); experiment: inhibition of Ras-converting CAAX protease Rce1 – biochemical, yeast membranes, quenched-peptide fluorescence, cherry-pick, dose response (AID 588849)
T2 sequence (Q9Y256 whole entry): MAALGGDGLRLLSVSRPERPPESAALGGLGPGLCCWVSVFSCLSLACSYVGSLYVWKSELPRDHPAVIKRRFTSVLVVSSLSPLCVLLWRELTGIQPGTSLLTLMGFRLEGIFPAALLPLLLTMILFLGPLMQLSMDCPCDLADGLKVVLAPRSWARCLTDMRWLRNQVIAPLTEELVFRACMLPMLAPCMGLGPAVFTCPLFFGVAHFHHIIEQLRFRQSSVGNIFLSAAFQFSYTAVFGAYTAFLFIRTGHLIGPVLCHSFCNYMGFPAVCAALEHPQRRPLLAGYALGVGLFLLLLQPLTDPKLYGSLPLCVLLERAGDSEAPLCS

BJ = experiment: growth inhibition of engineered Ras-driven BJ cells – cell-based, alamar blue fluorescence, cherrypicked samples, dose response (AID 2631); assay type: functional; conditions: Homo sapiens;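 further: confirmatory dose-response assay in RAS-dependent BJ fibroblasts engineered with TERT, LT and ST, with cytotoxicity read by fluorescence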
[4] = Luminescence Cell-Based Dose Response HTS to Identify Inhibitors of 5'UTR Stem-Loop Driven Prion Protein mRNA Translation in H4 Neuroglioblastoma Cells. [Related pubchem assays: 1827 (Project Summary), 1813 (Primary HTS)]; assay type: functional
[5] = alpha-synuclein stem-loop luciferase translation blockers – H4 neuroglioma cells, luminescence, confirmation (AID 1988); assay type: functional, cell-based
[6] = luciferase reporter signal suppression in cells – H4 neuroglioma cells, luminescence, dose response (AID 1990); assay type: functional, cell-based
Paired box protein Pax-8 = Paired box protein Pax-8 (Homo sapiens, UniProt Q06710); experiment: PAX8 transcriptional activity inhibition in RMG-I – RMG-I cells, luciferase, cherry-pick, dose response (AID 687027); assay type: functional, cell-based;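 further: luciferase reporter driven by Pax8 target thyroperoxidase promoter measured by SteadyGlo luminescence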
Vero [7] = experiment: mammalian cell viability reduction – secondary assay, cytotoxicity control for West Nile virus antiviral project, dose response (AID 1650); assay type: functional, Chlorocebus sabaeus
Beta-galactosidase = Beta-galactosidase (Escherichia coli, UniProt Q8VNN2); experiment: PubChem AID 485352; assay type: functional
[8] = target: T3, Type-1 angiotensin II receptor (Homo sapiens, UniProt P30556); experiment: antagonism of angiotensin II type 1 receptor – cell-based, uHTS hits, selectivity assay for APJ receptor antagonist project, dose response (AID 463214); assay type: functional;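 further: antagonist potency against angiotensin II stimulated AT1 response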
T3 sequence (P30556 whole entry): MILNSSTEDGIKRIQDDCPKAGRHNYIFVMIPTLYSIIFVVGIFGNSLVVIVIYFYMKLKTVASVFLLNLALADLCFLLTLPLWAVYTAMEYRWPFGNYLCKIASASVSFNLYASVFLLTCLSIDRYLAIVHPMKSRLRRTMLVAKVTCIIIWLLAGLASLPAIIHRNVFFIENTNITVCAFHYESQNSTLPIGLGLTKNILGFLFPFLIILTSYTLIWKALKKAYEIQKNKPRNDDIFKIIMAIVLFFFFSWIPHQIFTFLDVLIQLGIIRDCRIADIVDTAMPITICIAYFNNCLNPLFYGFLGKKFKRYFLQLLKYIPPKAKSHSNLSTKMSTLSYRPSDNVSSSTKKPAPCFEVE

[9] = target: T4, Microphthalmia-associated transcription factor (Homo sapiens, UniProt O75030); experiment: reducers of TRPM1 reporter luminescence, concentration series – cell-based, SK-MEL-5, cherry-picked, set 3, MITF inhibitor project, dose response (AID 493073); assay type: functional;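 further: SK-MEL-5 melanoma cells with luciferase driven by the MITF target TRPM1 promoter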
T4 sequence (O75030 whole entry): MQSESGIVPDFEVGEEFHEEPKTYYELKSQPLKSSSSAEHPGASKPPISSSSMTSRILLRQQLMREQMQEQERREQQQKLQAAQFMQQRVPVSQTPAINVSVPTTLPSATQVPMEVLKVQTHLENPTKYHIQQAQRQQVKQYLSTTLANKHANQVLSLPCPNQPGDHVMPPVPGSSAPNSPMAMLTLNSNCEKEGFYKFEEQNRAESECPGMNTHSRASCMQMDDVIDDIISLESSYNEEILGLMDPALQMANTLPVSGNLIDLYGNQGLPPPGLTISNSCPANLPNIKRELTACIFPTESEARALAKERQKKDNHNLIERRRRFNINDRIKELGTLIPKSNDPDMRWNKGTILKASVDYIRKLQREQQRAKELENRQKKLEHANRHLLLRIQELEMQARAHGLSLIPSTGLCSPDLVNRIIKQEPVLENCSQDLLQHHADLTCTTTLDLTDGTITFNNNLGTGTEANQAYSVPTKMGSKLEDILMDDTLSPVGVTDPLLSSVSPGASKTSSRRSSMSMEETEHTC

[10] = system: Streptococcus sp. 'group A'; experiment: Streptococcus pyogenes SK(-)GAS viability under kanamycin – luminescence, BacTiterGlo, confirmation, counter-screen for streptokinase expression inhibitor project, dose response (AID 1900); assay type: functional, organism-based; conditions: read-out: EC50
[11] = NIH-3T3 fibroblast cytotoxicity, dose response, cytotoxicity control, cell-based, fluorescence, Alamar Blue, secondary assay (AID 2327); assay type: functional;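 further: NIH-3T3 mouse fibroblasts cultured with fluconazole at 8 µg/mL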
H9c2 = experiment: cells; assay type: functional, cell-based; conditions: Rattus norvegicus, H9c2, Myocardium;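 further: confirmatory concentration-response retest of ultra-high-throughput screening hits for modulation of myocardial damage; cell death induced by hydrogen peroxide oxidative stress; compound pretreatment for 60 min then peroxide exposure for 2 h; potency is for protecting the cells against peroxide damage rather than for killing them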
[12] = fluconazole-exposed Candida albicans growth modulators – fluorescence, retest, confirmation (AID 2467); assay type: functional, cell-based
Streptococcus = experiment: GAS UMAA2166 growth inhibition – luminescence, BacTiterGlo, counter-screen for streptokinase expression inhibitor project, dose response (AID 1915); assay type: functional, organism-based;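 further: potency for reduction of bacterial viability or growth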
HEK293 = experiment: EBV LMP1 TES2 canonical NF-kB signalling blockers – cell-based, HEK293, luciferase, cherry-pick, dose response (AID 588343); assay type: functional; conditions: Homo sapiens
Cytochrome P450 2C9 = Cytochrome P450 2C9 (Homo sapiens, UniProt P11712)
Cytochrome P450 3A4 = Cytochrome P450 3A4 (Homo sapiens, UniProt P08684);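 further: CYP3A4 tested as one member of a cytochrome P450 panel screen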
Cytochrome P450 1A2 = target: T5, Cytochrome P450 1A2 (Homo sapiens, UniProt P05177);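 further: PubChem cytochrome P450 panel assay, CYP1A2 panel member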
T5 sequence (P05177 whole entry): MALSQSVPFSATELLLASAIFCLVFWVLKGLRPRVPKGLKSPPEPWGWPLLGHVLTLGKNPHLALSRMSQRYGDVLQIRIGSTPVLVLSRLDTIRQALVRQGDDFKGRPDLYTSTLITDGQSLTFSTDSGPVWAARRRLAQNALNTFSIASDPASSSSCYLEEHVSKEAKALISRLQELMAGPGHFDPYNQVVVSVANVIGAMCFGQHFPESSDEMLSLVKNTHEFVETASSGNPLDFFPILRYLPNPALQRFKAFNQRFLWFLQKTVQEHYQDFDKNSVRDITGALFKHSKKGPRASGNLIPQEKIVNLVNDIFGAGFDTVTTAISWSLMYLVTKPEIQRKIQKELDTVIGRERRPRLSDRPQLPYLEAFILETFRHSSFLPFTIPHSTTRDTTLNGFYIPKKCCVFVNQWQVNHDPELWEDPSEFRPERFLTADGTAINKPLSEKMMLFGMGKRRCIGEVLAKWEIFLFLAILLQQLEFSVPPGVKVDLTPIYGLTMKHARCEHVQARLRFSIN

Chain of Beta-galactosidase (Q8VNN2 whole entry): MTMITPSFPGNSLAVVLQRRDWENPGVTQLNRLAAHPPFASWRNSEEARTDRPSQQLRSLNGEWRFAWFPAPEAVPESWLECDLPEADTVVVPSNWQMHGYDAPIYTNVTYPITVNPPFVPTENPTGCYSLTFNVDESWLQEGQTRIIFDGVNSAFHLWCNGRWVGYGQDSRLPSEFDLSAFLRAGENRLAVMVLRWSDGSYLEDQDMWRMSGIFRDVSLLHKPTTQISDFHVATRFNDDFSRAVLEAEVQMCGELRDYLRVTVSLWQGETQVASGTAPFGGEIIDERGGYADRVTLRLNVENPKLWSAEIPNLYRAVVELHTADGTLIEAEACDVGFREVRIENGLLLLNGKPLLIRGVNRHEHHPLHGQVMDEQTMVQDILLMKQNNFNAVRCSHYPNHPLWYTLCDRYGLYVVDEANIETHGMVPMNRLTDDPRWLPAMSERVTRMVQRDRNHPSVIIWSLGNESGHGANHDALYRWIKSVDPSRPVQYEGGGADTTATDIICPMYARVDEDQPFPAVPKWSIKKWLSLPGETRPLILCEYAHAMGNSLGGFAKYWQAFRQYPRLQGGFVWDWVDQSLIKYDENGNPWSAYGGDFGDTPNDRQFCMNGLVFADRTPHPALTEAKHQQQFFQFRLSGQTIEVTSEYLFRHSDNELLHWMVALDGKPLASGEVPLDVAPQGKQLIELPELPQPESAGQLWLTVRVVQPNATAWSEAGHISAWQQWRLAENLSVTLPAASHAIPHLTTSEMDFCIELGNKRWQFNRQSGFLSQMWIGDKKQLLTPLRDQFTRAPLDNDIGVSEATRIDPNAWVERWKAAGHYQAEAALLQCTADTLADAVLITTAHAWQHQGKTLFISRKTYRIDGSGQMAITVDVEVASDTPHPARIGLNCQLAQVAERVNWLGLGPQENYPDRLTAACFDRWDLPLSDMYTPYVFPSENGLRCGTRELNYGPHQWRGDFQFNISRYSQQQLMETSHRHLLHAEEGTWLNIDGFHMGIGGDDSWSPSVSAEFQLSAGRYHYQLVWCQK
Chain of Trypsin (P00761 whole entry): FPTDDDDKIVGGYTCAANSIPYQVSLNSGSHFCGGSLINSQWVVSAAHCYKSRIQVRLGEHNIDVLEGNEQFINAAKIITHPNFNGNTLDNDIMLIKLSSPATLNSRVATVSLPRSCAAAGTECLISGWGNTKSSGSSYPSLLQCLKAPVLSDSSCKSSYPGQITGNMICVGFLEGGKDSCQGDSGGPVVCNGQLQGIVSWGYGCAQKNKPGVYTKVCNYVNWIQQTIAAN
Chain of Cytochrome P450 3A4 (P08684 whole entry): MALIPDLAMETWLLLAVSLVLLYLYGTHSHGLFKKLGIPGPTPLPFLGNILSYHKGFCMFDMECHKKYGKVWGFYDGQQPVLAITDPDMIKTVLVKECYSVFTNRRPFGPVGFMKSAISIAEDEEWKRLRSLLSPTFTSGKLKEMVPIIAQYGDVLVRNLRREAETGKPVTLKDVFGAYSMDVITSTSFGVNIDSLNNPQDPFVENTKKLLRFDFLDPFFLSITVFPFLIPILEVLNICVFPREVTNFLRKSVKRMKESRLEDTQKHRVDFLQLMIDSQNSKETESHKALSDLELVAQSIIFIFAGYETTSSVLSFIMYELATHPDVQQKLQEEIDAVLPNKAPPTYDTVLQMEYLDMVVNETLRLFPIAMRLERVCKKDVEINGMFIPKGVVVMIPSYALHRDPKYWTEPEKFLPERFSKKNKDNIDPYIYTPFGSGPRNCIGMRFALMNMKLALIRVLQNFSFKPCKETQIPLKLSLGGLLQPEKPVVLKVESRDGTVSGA
Chain of Paired box protein Pax-8 (Q06710 whole entry): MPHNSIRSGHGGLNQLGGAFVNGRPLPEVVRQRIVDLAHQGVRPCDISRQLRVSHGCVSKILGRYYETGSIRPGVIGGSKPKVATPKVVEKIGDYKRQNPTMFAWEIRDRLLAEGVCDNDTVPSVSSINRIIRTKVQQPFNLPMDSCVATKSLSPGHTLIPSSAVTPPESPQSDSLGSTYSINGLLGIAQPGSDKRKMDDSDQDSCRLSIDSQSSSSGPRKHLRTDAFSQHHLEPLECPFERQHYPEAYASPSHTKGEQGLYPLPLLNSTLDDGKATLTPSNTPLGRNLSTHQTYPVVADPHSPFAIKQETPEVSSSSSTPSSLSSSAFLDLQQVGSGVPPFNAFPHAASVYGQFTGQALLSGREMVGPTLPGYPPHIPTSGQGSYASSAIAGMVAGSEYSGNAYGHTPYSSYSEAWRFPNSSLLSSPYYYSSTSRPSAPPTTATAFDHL
Chain of Cytochrome P450 2C9 (P11712 whole entry): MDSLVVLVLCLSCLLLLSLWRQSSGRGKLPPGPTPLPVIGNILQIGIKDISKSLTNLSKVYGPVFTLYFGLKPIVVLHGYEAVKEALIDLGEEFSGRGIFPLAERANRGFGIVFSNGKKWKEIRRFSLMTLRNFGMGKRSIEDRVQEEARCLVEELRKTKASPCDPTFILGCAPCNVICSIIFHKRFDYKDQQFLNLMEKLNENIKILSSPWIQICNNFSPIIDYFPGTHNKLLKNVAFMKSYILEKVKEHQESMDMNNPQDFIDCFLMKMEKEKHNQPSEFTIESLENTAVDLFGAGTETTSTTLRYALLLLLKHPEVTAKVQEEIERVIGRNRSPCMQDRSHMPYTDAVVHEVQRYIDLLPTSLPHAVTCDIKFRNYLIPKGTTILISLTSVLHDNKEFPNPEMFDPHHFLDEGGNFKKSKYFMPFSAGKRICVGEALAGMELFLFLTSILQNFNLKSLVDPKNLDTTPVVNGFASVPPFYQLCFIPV

With Cc1ccc(N(Cc2cc(O)nc3ccccc23)C(=O)CCl)c(C)c1 the IC50 (Vero [1]) was > 25 µM (active) and the CC50 (Vero [2]) was 7.95 µM (active).

For COc1cc2c(cc1OC)C(CCc1ccccc1)=NCC2, the EC50 [3] was > 260 µM (inactive), the AC50 (Trypsin) was 9.41 µM (active) and the AC50 (CAAX prenyl protease 2) was 6.03 µM (active).

With C[C@H]1O[C@@H](O[C@H]2[C@@H](O)C[C@H](O[C@H]3[C@@H](O)C[C@H](O[C@H]4CC[C@@]5(C)[C@H](CC[C@@H]6[C@@H]5C[C@@H](O)[C@]5(C)[C@@H](C7=CC(=O)OC7)CC[C@]65O)C4)O[C@@H]3C)O[C@@H]2C)C[C@H](O)[C@@H]1O [DIGOXIN] the EC50 (BJ) was < 0.104 µM (active), the EC50 [4] was < 0.1 µM (active) and the EC50 [5] was < 0.1 µM (active). For the same molecule, the EC50 [6] was < 0.1 µM (active), the AC50 (Paired box protein Pax-8) was 0.414 µM (active) and the IC50 (Vero [1]) was < 0.05 µM (active). The CC50 (Vero [2]) was 0.39 µM (active), the CC50 (Vero [7]) was 0.37 µM (active) and the CC50 (Vero [7]; Chlorocebus sabaeus, Vero) was 0.3 µM (active).

For O=C(COc1ccccc1)OCC(=O)c1ccc(S(=O)(=O)N2CCCCC2)cc1, the EC50 (Beta-galactosidase) was > 40 µM (inactive) and the IC50 [8] was 16.9 µM (active).

In the case of Cc1cc(C)c2ccc(N)nc2c1O, the EC50 (Beta-galactosidase) is reported as > 40 µM (inactive), the AC50 [9] is reported as 9.58 µM (active) and the IC50 [8] is reported as 13.7 µM (active). For the same molecule, the EC50 [10] was 3.15 µM (active), the EC50 [11] was > 150 µM (inconclusive) and the IC50 (H9c2) was > 79 µM (inactive). For the same molecule, the EC50 [12] was > 38 µM (not active) and the EC50 (Streptococcus) was 9.09 µM (active).

With CCOc1ccccc1C(=O)N[C@H](C(=O)OCc1cc([N+](=O)[O-])cc2c1OCOC2)C(C)C the AC50 (HEK293) was 183 µM (active).

For O=C(CCC(=O)OCC(=O)c1cccc([N+](=O)[O-])c1)Nc1ccccc1Cl, the EC50 (Beta-galactosidase) was > 40 µM (inactive) and the IC50 [8] was 15 µM (active).

For Cn1c(=O)c(-c2ccccc2)nc2cnc(Oc3ccccc3)nc21, the AC50 (Cytochrome P450 2C9) was 12.6 µM (inconclusive) and the AC50 (Cytochrome P450 3A4) was “inconclusive”.

For CCN(CC)S(=O)(=O)c1ccc(NC(=O)COC(=O)c2ccc(Br)o2)cc1, the AC50 (Cytochrome P450 1A2) was 0.316 µM (inconclusive) and the AC50 (Cytochrome P450 3A4) was “inconclusive”.

With CCN1CCN(Cc2c(O)ccc3c(=O)c(-c4ccccc4OC)coc23)CC1 the AC50 (Trypsin) was 16 µM (active) and the AC50 (CAAX prenyl protease 2) was 5.2 µM (active).
